These results are taken from patent publication US9273041B2, “Compounds for the treatment of dyslipidemia and related diseases” (Cadila Healthcare Limited, priority 2012, dated 2016).

This assay deals with PCSK9 (Homo sapiens, UniProt Q8NBP7). As to the kind of experiment: PCSK9-LDLR in vitro binding assay (solid phase, ELISA readout). The conditions noted are these: read-out: % Inhibition PCSK 9; for inhibition at 10 µM: test compound concentration 10 μM; for inhibition at 100 µM: test compound concentration 100 μM; for inhibition at 1 µM: test compound concentration 1 μM. As to the method:
The PCSK9-LDLR in vitro binding Assay is a quantitative solid phase binding assay between PCSK9 and recombinant LDLR. Plates were pre-coated with a recombinant LDLR-AB domain, which binds PCSK9. Test compound at different concentration was added to the PCSK9 and added to LDLR immobilized on the wells. The amount of bound PCSK9 is measured by binding it with biotinylated anti-His-tag monoclonal antibody, followed by binding with horseradish peroxidase conjugated streptavidin substrate. The color was quantified by ELISA reader at […] which reflects the relative amount of PCSK9 that binds to LDLR in presence and absence of the inhibitor. EC50 values were calculated by nonlinear regression analysis using graph pad prism software. Each concentration point represents values in duplicates.
A general note: An ELISA detects its analyte on a solid surface through an enzyme-linked reagent.

Chain of PCSK9 (Q8NBP7 153-692): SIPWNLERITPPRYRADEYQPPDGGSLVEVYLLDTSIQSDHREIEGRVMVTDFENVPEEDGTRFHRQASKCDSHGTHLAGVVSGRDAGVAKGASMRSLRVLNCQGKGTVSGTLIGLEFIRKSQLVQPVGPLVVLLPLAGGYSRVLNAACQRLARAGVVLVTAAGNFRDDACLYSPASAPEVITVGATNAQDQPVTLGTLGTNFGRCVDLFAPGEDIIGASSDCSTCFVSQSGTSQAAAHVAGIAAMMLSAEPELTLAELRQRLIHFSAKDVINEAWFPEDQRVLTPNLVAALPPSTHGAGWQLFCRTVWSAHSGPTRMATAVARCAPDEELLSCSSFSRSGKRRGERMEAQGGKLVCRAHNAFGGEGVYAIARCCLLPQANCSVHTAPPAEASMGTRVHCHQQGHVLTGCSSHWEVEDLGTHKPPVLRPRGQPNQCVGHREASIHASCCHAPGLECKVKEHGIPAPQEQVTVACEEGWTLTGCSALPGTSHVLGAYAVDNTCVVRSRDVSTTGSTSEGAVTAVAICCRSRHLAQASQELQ
Chain of PCSK9 (Q8NBP7 31-152 partner limits assumed): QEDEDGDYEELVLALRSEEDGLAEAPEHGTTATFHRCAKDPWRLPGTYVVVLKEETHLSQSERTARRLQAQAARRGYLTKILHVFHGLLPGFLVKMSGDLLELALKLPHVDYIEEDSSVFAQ

As for `COc1cc(-c2ccc(OCC(=O)NCC3CCOCC3)cc2)nn1-c1ccc(C(F)(F)F)cc1` [Example 8, 2-(4-(5-methoxy-1-(4-(trifluoromethyl)phenyl)-1H-pyrazol-3-yl)phenoxy)-N-((tetrahydro-2H-pyran-4-yl)methyl)acetamide], the inhibition at 10 µM amounted to 73% and the inhibition at 100 µM amounted to 58%.
Take `Cc1oc(-c2ccc(F)cc2)nc1-c1ccc(OCC(=O)NCC2CCOCC2)cc1` [Example 19, 2-(4-(2-(4-fluorophenyl)-5-methyloxazol-4-yl)phenoxy)-N-((tetrahydro-2H-pyran-4-yl)methyl)acetamide]: the inhibition at 10 µM came to 24% and the inhibition at 100 µM worked out at 50%.
For `COc1cc(-c2ccc(OCC(=O)NCC3CCOCC3)cc2)nn1-c1ccc(F)cc1` [Example 9, 2-(4-(1-(4-fluorophenyl)-5-methoxy-1H-pyrazol-3-yl)phenoxy)-N-((tetrahydro-2H-pyran-4-yl)methyl)acetamide], the inhibition at 1 µM came to 37%, the inhibition at 10 µM was 41% and the inhibition at 100 µM is 64%.
Regarding `O=C(COc1ccc(-c2nnc(-c3ccc(F)cc3)o2)cc1)NCC1CCOCC1` [Example 30, 2-(4-(5-(4-fluorophenyl)-1,3,4-oxadiazol-2-yl)phenoxy)-N-((tetrahydro-2H-pyran-4-yl)methyl)acetamide], the inhibition at 1 µM was 19%, the inhibition at 10 µM was 20% and the inhibition at 100 µM came to 32%.
Consider `Cc1oc(-c2ccc(C(F)(F)F)cc2)nc1-c1ccc(OCC(=O)NCC2CCOCC2)cc1` [Example 18, 2-(4-(5-methyl-2-(4-(trifluoromethyl)phenyl)oxazol-4-yl)phenoxy)-N-((tetrahydro-2H-pyran-4-yl)methyl)acetamide], for which the inhibition at 10 µM came to 53%.
`Cc1c(-c2ccc(OCC(=O)NCC3CCOCC3)cc2)noc1-c1ccc(C(F)(F)F)cc1` [Example 5, 2-(4-(4-methyl-5-(4-(trifluoromethyl)phenyl)isoxazol-3-yl)phenoxy)-N-((tetrahydro-2H-pyran-4-yl)methyl)acetamide]: the inhibition at 1 µM came to 49%, the inhibition at 10 µM was determined as 67% and the inhibition at 100 µM was found to be 71%.
In the case of `COc1cc(-c2ccc(OCC(=O)NCC3CCOCC3)cc2)nn1Cc1ccc(C(F)(F)F)cc1` [Example 38, 2-(4-(5-methoxy-1-(4-(trifluoromethyl)benzyl)-1H-pyrazol-3-yl)phenoxy)-N-((tetrahydro-2H-pyran-4-yl)methyl)acetamide], the inhibition at 1 µM was found to be 27%, the inhibition at 10 µM was found to be 39% and the inhibition at 100 µM worked out at 59%.
For `O=C(COc1ccc(-n2cc(-c3ccccc3)nn2)cc1)NCC1CCOCC1` [Example 37, 2-(4-(4-phenyl-1H-1,2,3-triazol-1-yl)phenoxy)-N-((tetrahydro-2H-pyran-4-yl)methyl)acetamide], the inhibition at 1 µM was found to be 25%, the inhibition at 10 µM was determined as 58% and the inhibition at 100 µM turned out to be 78%.
In the case of `Cc1c(-c2ccc(OCC(=O)NCC3CCOCC3)cc2)noc1-c1ccc(F)cc1` [Example 3, 2-(4-(5-(4-fluorophenyl)-4-methylisoxazol-3-yl)phenoxy)-N-((tetrahydro-2H-pyran-4-yl)methyl)acetamide], the inhibition at 1 µM is 33%, the inhibition at 10 µM amounted to 35% and the inhibition at 100 µM turned out to be 65%.
For `O=C(COc1ccc(-c2nnc(-c3ccc(C(F)(F)F)cc3)o2)cc1)NCC1CCOCC1` [Example 31, N-((tetrahydro-2H-pyran-4-yl)methyl)-2-(4-(5-(4-(trifluoromethyl)phenyl)-1,3,4-oxadiazol-2-yl)phenoxy)acetamide], the inhibition at 1 µM was determined as 25%, the inhibition at 10 µM stood at 34% and the inhibition at 100 µM was 36%.

For orientation: inhibition means the change of the read-out against control, counted positive when it falls.
